Columns and labels:
[1] = tested on: BALB/c mice with psoriasis induced by Aldara cream (imiquimod); assay: Imiquimod-induced psoriasis model; type: in vivo; conditions: for psoriatic skin lesions (photographs, FIG. 49): 40 mg/kg intraperitoneal in 50 μL DMSO; for number of CD4 T cells in spleen (flow cytometry) / number of CD8 T cells in spleen (flow cytometry) / inflammatory cell infiltration (H&E staining of skin) / erythema / skin scaling / skin thickness: 40 mg/kg intraperitoneal; for number of CD4 T cells in spleen (flow cytometry) / number of CD8 T cells in spleen (flow cytometry): splenic T cells; for inflammatory cell infiltration (H&E staining of skin): versus negative control and DMSO group; for erythema / skin scaling / skin thickness: visual observation, P<0.05
Description: A test was conducted to evaluate the alleviation of psoriatic skin lesions using psoriasis animals. To this end, first, BALB/c mice (7 weeks old/20 g/female) purchased from Hana Biotech Co., Ltd., Korea were acclimated to the vivarium for a period of one week. After that, the hair on the back of the mice was shaved and completely removed with a depilatory cream (Niclean cream (thioglycolic acid […], Ildong Pharmaceutical Co., Ltd., Korea)). The animals were bred for 24 h. 80 mg of Aldara® cream (imiquimod 4 mg) was applied daily for 1 week (7 days, 7 times in total) to induce psoriasis, as shown in FIG. 49. Thereafter, 80 mg of Aldara® cream (imiquimod 4 mg) was continuously applied to each group for 10 days. During the administration, an observation was made as to whether psoriasis was alleviated. As a result, skin lesions were alleviated in the group administered the inventive compound than in the negative control or the DMSO-administered group, as shown in FIG. 49.
After the skin tissues of the test subjects were subjected to H&E staining according to the above schedule, the degrees of inflammatory cell infiltration were observed.
FIGS. 56 and 57 show the results of flow cytometry for the groups administered the compounds of Examples 14 and 17. The in vivo effects of the compounds of Examples 14 and 17 on T cells in the test subjects were investigated. To this end, the spleens were harvested from the mice administered each compound and T cells were extracted from the harvested spleens.

[2] = tested on: T lymphocyte cell line Jurkat E6-1; assay: Cytotoxicity (CCK-8 viability); type: cell-based; conditions: 20 h culture
Description: The cytotoxicities of the compounds of Examples 1-19 and Comparative Examples 1-3 to T lymphocyte cell line Jurkat E6-1 provided from the Korea Cell Line Bank were measured using a cell counting kit (CCK-8, Dojindo). After the cell line was allowed to grow in RPMI1640 medium supplemented with 10% FBS, 100 U/mL penicillin, and 100 μg/mL streptomycin, cells were plated in each well of a 96-well plate at a density of 2λ10^4 cells/well and treated with each of the compounds of Examples 1-19 and Comparative Examples 1-3. After culture in a 5% CO2 incubator at 37° C. for 20 h, CCK-8 solution was added to a concentration of 10%, followed by reculture in a 5% CO2 incubator at 37° C. for one and a half hours. The absorbance was measured at 450 nm (Reference: 650 nm) and was expressed in percent relative to the value […] from non-treated cells (viability 100%).
In Table 1, the number 100 corresponds to a viability of 100%.

Row | SMILES | psoriatic skin lesions (photographs, FIG. 49) [1] | number of CD4 T cells in spleen (flow cytometry) [1] | number of CD8 T cells in spleen (flow cytometry) [1] | inflammatory cell infiltration (H&E staining of skin) [1] | erythema [1] | skin scaling [1] | skin thickness [1] | viability relative to non-treated cells, 10 μM (%) [2] [%] | viability relative to non-treated cells, 20 μM (%) [2] [%] | viability relative to non-treated cells, 30 μM (%) [2] [%]
1 | CC(C)=CCC/C(C)=C/CNC(=O)c1ccccc1Br [Example 14] | alleviated | decreases | decreases | less inflammatory cell infiltration | significant decreases | significant decreases | significant decreases | 96.9 | 96.6 | 95.4
2 | C=CCCCCCCCCCNC(=O)c1ccccc1F [Example 15] |  |  |  |  |  |  |  | 88.8 | 91.2 | 93.5
3 | CCCCCCCCCCCCNC(=O)c1ccccc1O [Example 7] |  |  |  |  |  |  |  | 82 | 79.3 | 66
4 | C=CCCCCCCCCCNC(=O)c1ccccc1Br [Example 13] |  |  |  |  |  |  |  | 98.8 | 97.9 | 90.3
5 | CC(C)=CCC/C(C)=C/CC/C(C)=C/COC(=O)c1ccccc1Br [Example 17] | alleviated | decreases | decreases | less inflammatory cell infiltration | significant decreases | significant decreases | significant decreases | 73.6 | 72.1 | 72.7
6 | CC(C)=CCC/C(C)=C/CNC(=O)c1ccccc1F [Example 16] |  |  |  |  |  |  |  | 89.3 | 85.7 | 76.3
7 | CCCCCCNC(=O)c1ccccc1OC [Example 4] |  |  |  |  |  |  |  | 96 | 92 | 88
8 | CCCCC(CC)CNC(=O)c1ccccc1Br (centres unmarked) [Example 9] |  |  |  |  |  |  |  | 95.3 | 95.1 | 92.0
9 | CCCCCCCCCCNC(=O)c1ccccc1Br [Example 12] |  |  |  |  |  |  |  | 91 | 85.3 | 78.5
10 | CCCCC(CC)CNC(=O)c1ccccc1F (centres unmarked) [Example 8] |  |  |  |  |  |  |  | 94.7 | 92.2 | 90.9

From US20240307340A1, “IMMUNOSUPPRESSIVE PHARMACEUTICAL COMPOSITION INCLUDING BENZENE DERIVATIVE AS IMMUNOSUPPRESSANT” (INJE UNIVERSITY INDUSTRY-ACADEMIC COOPERATION FOUNDATION, priority 2021, published 2024)
